Results from patent US11083197B2, “Herbicidal composition comprising chromone derivatives and a method for weed control” (INVESTIGACIONES BIOLÓGICAS EN AGROQUÍMICOS ROSARIO S.A., priority 2015, dated 2021).

How the values were obtained:
[1] = tested on: cucumber leaf disks; experiment: Cell death determination by Evans blue staining, leaf disks; format: cell-based; conditions: 7 days; for increase in relative cell death with respect to the control: 100 μM; for increase in relative cell death: 300 μM
Description: To evaluate cell death in roots, onion seeds were germinated and treated as described in postemergence assay with weed species. Onion seedlings were exposed to different doses of compounds of formulas III and IV (0, 100 and 300 μM) during 4 days. For the experiment with leaf disks 3-weeks-cucumber plants were used. One disk (1 cm) was placed in each well of a 12-well plate together with 1 mL of a 2% w/v sucrose/1 mM MES, pH 6.5 solution containing each of the compounds tested at the appropriate concentration (0, 100 or 300 μM) and acetone (1% v/v). Each assay was performed with leaf disks from different plants. Plates were sealed with Parafilm and incubated in a growth chamber at 21-27° C. with a 16/8 h light/dark cycle for 7 days.
Cell death was determined by Evans blue staining.^26 Root tips (5-mm sections) and leaf disks were incubated for 30 min in 0.25% w/v Evans blue aqueous solution at 25° C. on a rotary shaker. After staining, unbound dye was removed by extensive washing with deionized water. Three root tips (3 replicates) or one leaf disk (4 replicates) were ground in a tissue grind tube with 500 μL 1% w/v sodium dodecyl sulfate (SDS). The resulting suspension was centrifuged for 20 min at 20,000 g and the supernatant was used for dye quantification by monitoring the absorbance at 600 and 680 nm. Relative cell death was expressed as A600 for root tips and A600/A680 ratios for leaf disks.

[2] = tested on: cucumber cotyledon disks; experiment: Electrolyte leakage assay; format: cell-based; conditions: for destabilization of cell membranes, electrolyte leakage / electrolyte leakage versus boiled positive control: 100 and 300 μM; for electrolyte leakage versus boiled positive control: 16 h dark plus 26 h of high light intensity
Description: The effects of pure furanochromones, compounds of formulas III and IV (Sigma Aldrich), on membrane stability were studied as described by Dayan and Watson.^23 Cucumber cotyledon disks were exposed to each furanochromone at 100 and 300 μM. Control tissues were exposed to the same solvent as treated tissues but without the compounds. Conductivity measurements were carried out at the beginning of the dark incubation period, a second measurement was made after 16 h, at which time the samples were placed under high light intensity, and final measurements were made after 8 and 26 h of light exposure. Each experiment consisted of three replicates. Maximum conductivity was measured by boiling three samples of each treatment for 20 min. To study if electrolyte leakage caused by compounds of formulas III and IV was light-dependent, two sets of Petri plates were prepared with cucumber cotyledon disks exposed to test compounds and control in both. One set was treated as described before (dark 16 h/light 26 h) while the other one was kept in darkness for 42 h. Conductivity measurements were done at the indicated times.

[3] = tested on: ryegrass; experiment: Postemergence bioassay with ryegrass in Petri dishes; format: in vivo; conditions: Lolium multiflorum, post-emergence; 500 μM; day 6 (4 days after application); read-out: Growth inhibition (%) as percentage of control
Description: Plant length was measured at day 6 (4 days after application of the compounds)
Plant length's axis starts in 5 mm because seeds were pre-incubated in water, so all seedlings were around 5 mm long at the beginning of the treatment.

[4] = tested on: crabgrass (D. sanguinalis), barnyardgrass (E. crus-galli) and velvetleaf (A. theophrasti); experiment: Greenhouse postemergence spray, 4.0 kg ai/ha; format: in vivo
Description: Aqueous solution containing commercial standard of pure compound of Formula IV was prepared and sprayed on crabgrass (D. sanguinalis), barnyardgrass (E. crus-galli) and velvetleaf (A. theophrasti). Plants were sprayed at 2-3 true leaf stage (13-16-day-old plants). For better dissolution of compounds in water AGRIDEX (1% v/v) and acetone (1% v/v) were added to spray solutions. Final rate of compounds was 4.0 kg ai ha^−1. Plant height and dry weight were measured at 11 days after spray. Results were compared with the bio herbicide pelargonic acid at 4.0 kg ai ha^−1.

[5] = tested on: green alga Chlamydomonas reinhardtii; conditions: equimolar concentrations and equal UV-A doses; cited from earlier work
[6] = tested on: lettuce; experiment: Postemergence bioassay with lettuce in Petri dishes; format: in vivo; conditions: Lactuca sativa, post-emergence, day 6 (4 days after postemergence application), read-out: Average growth inhibition (%) as percentage of control; for inhibition at 500 µM: 0.50 mM; for inhibition at 1000 µM: 1.00 mM; for inhibition at 1500 µM: 1.50 mM
Description: Compounds of formula III and IV above were tested at different concentrations in a postemergence bioassay (in Petri dishes) against lettuce. Lettuce seeds were pre-incubated in Petri dishes with a filter paper and water for 2 days. After that, seedlings (15 mm approx.) were moved to a new Petri dish containing 4 mL of an aqueous solution of each compound or commercial herbicide. Plants length was measured at day 6 (4 days after postemergence application of the compounds). The results were compared to those obtained with acetochlor and glyphosate.
Plant length's axis starts in 15 mm because seeds were pre-incubated in water, so all seedlings were around 15 mm long at the beginning of the treatment.

| SMILES | increase in relative cell death with respect to the control [1] [%] | increase in relative cell death [1] [fold] | electrolyte leakage ([2]; 100 μM, after 8 h in the light) | destabilization of cell membranes, electrolyte leakage [2] | electrolyte leakage versus boiled positive control [2] | inhibition at 500 µM [3] [%] | kind of postemergence herbicidal activity [4] | height and biomass of sprayed weeds versus control plants ([4]; 11 days after spray) | symptoms on treated plants ([4]; 11 days after treatment) | phototoxicity and photomutagenicity compared with bergapten [5] | inhibition at 500 µM [6] [%] | inhibition at 1000 µM [6] [%] | inhibition at 1500 µM [6] [%] |
| --- | --- | --- | --- | --- | --- | --- | --- | --- | --- | --- | --- | --- | --- |
| COc1c2ccoc2cc2oc(C)cc(=O)c12 [Formula IV, 4-methoxy-7-methyl-5H-furo[3,2-g]chromen-5-one] | ~35 | 3.5 | caused electrolyte leakage | significant electrolyte leakage | comparable to the positive control | 66 | by contact and non-selective | significantly smaller | necrotic lesions and some abnormally formed leaves | much less phototoxic and photomutagenic than bergapten | 22 | 85 | 91 |
| COc1c2occc2c(OC)c2c(=O)cc(C)oc12 [Formula III, 4,9-dimethoxy-7-methyl-5H-furo[3,2-g]chromen-5-one] | ~35 | 3.5 |  | significant electrolyte leakage | comparable to the positive control | 25 |  |  |  |  | 22 | 85 | 91 |
